From patent US20240294551A1 (AMGEN INC., priority 2022, published 2024) come the findings set out here.

Assay [1] concerns the target GDP-bound KRAS protein (aa 1-169), containing both G12D and C118A amino acid substitutions (Homo sapiens (Human), UniProt P01116, C118A/G12D). The experiment in a line: KRAS G12D Coupled Nucleotide Exchange Assay. It counts as biochemical. The conditions noted are these: read-out: KRAS G12D Coupled Exchange IC50.
The subject of assay [2] is Phosphorylation of ERK1/2 in AsPC-1 cells. The experiment in a line: Phospho-ERK1/2 MSD Assay. In kind it is cell-based, human. The note with it: read-out: 2 h p-ERK (AsPC-1 cells), IC50. Summed up: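 Read-out: MSD electrochemiluminescent detection of phosphorylated ERK1/2 in whole-cell lysates, fitted to a 4-parameter logistic curve for IC50. Prior to lysis, AsPC-1 cells (25,000 per well) received a 2 h compound dose-response at 37 °C.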

Assay [3] concerns the target His-tagged KRAS G12D protein (Homo sapiens (Human), UniProt P01116, G12D). The experiment in a line: KRAS G12D TR-FRET Assay. It counts as binding. The note with it: read-out: KRAS G12D Binding IC50. The method in brief: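 Each incubation ran at room temperature: enzyme with compound for 30 minutes, peptide for one hour, and detection reagents (0.4 nM europium anti-6×His, 5 nM streptavidin-d2) for one hour more. Protein and peptide stocks were each diluted to 20 nM before addition.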
(In general: In TR-FRET formats the signal depends on donor and acceptor labels being close together.)

The subject of assay [4] is AsPC-1 cells. The experiment in a line: AsPC-1 CTG Assay (CellTiter-Glo cell viability). The note with it: AsPC-1, 72 h, first value of the cell, read-out: G12D/C/V Cell Proliferation CTG (72 h) AsPC-1. It counts as cell-based, human. As for the experimental part:
AsPC-1 and SW620 CTG Assay Protocols
AsPC-1 (human pancreatic adenocarcinoma; ATCC CRL-1682) or SW620 (human colon adenocarcinoma; ATCC CCL-227) cells were cultured in RPMI 1640 medium containing 10% fetal bovine serum and 1× penicillin/streptomycin/L-glutamine. Cells were seeded in 384-well plates at a density of 3.33E+04 cells/mL and incubated at 37° C., 5% CO2, overnight. Serially-diluted compound or DMSO was added to the cells, and plates were incubated at 37° C., 5% CO2 for 72 h. Cell viability was measured using a CellTiter-Glo® Luminescent Cell Viability Assay kit (Promega) according to the manufacturer's protocol. The luminescence signal of treated samples was normalized to DMSO control, and data were analyzed using a 4-parameter logistic model to calculate IC50 values.

Counter-ions that a name gives are not always drawn. Like-named read-outs stand apart in the source and are kept apart here.

Chain of His-tagged KRAS G12D protein (P01116 other isoform, or with tags, fused parts or gaps G12D): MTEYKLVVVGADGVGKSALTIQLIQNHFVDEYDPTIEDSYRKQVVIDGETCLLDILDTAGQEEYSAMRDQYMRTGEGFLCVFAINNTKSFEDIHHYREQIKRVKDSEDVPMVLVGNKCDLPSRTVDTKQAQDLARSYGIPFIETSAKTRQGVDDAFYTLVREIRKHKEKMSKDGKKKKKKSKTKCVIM
Chain of GDP-bound KRAS protein (aa 1-169), containing both G12D and C118A amino acid substitutions (P01116 other isoform, or with tags, fused parts or gaps G12D/C118A): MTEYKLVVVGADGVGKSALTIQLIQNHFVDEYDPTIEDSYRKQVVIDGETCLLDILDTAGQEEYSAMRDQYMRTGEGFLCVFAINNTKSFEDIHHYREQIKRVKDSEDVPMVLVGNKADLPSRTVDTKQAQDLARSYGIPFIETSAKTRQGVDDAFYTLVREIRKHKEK

Consider `C[C@@]12CCCN(C1)c1nc(OC[C@@]34CCCN3C[C@H](F)C4)nc3c(F)c(ccc13)-c1cc(O)cc3ccc(F)c(c13)CCCC(=O)N2` [Example 16, (15R)-22,31-Difluoro-8-(((2R,7aS)-2-fluorotetrahydro-1H-pyrrolo[1,2-a]pyrrol-7a(5H)-yl)methoxy)-27-hydroxy-15-methyl-7,9,11,16-tetraazahexacyclo[19.7.1.1˜2,6˜.1˜11,15˜.0˜5,10˜.0˜25,29˜]hentriaconta-1(28),2(31),3,5,7,9,21,23,25(29),26-decaen-17-one bis(2,2,2-trifluoroacetate)], for which the IC50 in assay [1] was 0.005 µM; in assay [2] (Homo sapiens, ASPC1, 2 h), 0.092 µM; in assay [3] it was 0.006 µM; in assay [4] (Homo sapiens, ASPC1, 72 h), 1.2 µM.

For `COc1c2ncc3c(nc(OC[C@@]45CCCN4C[C@H](F)C5)nc13)N1CCC[C@](C)(C1)NC(=O)CCCc1c(F)ccc3cc(O)cc-2c13` [Example 19, (15R)-22-Fluoro-8-(((2R,7aS)-2-fluorotetrahydro-1H-pyrrolo[1,2-a]pyrrol-7a(5H)-yl)methoxy)-27-hydroxy-31-methoxy-15-methyl-3,7,9,11,16-pentaazahexacyclo[19.7.1.1˜2,6˜.1˜11,15˜.0˜5,10˜.0˜25,29˜]hentriaconta-1(28),2(31),3,5,7,9,21,23,25(29),26-decaen-17-one], the IC50 is 0.005 µM in assay [1]; 1.86 µM in assay [2] (Homo sapiens, ASPC1, 2 h); 0.007 µM in assay [3]; 5 µM in assay [4] (Homo sapiens, ASPC1, 72 h).

For `Cc1cc2[nH]ncc2c2c1CCCCC(=O)N[C@]1(C)CCCN(C1)c1nc(OC[C@@]34CCCN3C[C@H](F)C4)nc3c(F)c-2ncc13` [Example 20, (17R)-30-Fluoro-24-(((2R,7aS)-2-fluorotetrahydro-1H-pyrrolo[1,2-a]pyrrol-7a(5H)-yl)methoxy)-9,17-dimethyl-5,6,16,21,23,25,29-heptaazahexacyclo[24.3.1.1˜17,21˜.0˜2,10˜.0˜3,7˜.0˜22,27˜]hentriaconta-1(30),2,4,7,9,22,24,26,28-nonaen-15-one bis(2,2,2-trifluoroacetate)], the IC50 in assay [1] is 0.022 µM; in assay [2] (Homo sapiens, ASPC1, 2 h), 0.823 µM; in assay [3], 0.02 µM; in assay [4] (Homo sapiens, ASPC1, 72 h), 2.22 µM.

On to `C[C@@]12CCCN(C1)c1nc(OC[C@@]34CCCN3C[C@H](F)C4)nc3c(F)c(ncc13)-c1cc(O)cc3c1[C@@H](CCCC(=O)N2)CCC3` [Example 27, (15R,21R)-31-Fluoro-8-(((2R,7aS)-2-fluorotetrahydro-1H-pyrrolo[1,2-a]pyrrol-7a(5H)-yl)methoxy)-27-hydroxy-15-methyl-3,7,9,11,16-pentaazahexacyclo[19.7.1.1˜2,6˜.1˜11,15˜.0˜5,10˜.0˜25,29˜]hentriaconta-1(29),2(31),3,5,7,9,25,27-octaen-17-one 2,2,2-trifluoroacetate salt], for which the IC50 in assay [1] was 0.005 µM; in assay [2] (Homo sapiens, ASPC1, 2 h), 0.18 µM; in assay [3], 0.007 µM; in assay [4] (Homo sapiens, ASPC1, 72 h), 0.661 µM.

Turning to `Cc1cc2[nH]ncc2c2c1CCCCC(=O)O[C@]1(C)CCCN(C1)c1nc(OC[C@@]34CCCN3C[C@H](F)C4)nc3c(F)c-2ncc13` [Example 32, (17R)-30-fluoro-24-(((2R,7aS)-2-fluorotetrahydro-1H-pyrrolo[1,2-a]pyrrol-7a(5H)-yl)methoxy)-9,17-dimethyl-16-oxa-5,6,21,23,25,29-hexaazahexacyclo[24.3.1.1~17,21~.0~2,10~.0~3,7~.0~22,27~]hentriaconta-1(30),2,4,7,9,22,24,26,28-nonaen-15-one], the IC50 in assay [1] is 0.003 µM; in assay [2] (Homo sapiens, ASPC1, 2 h) it was 0.043 µM; in assay [3], 0.005 µM; in assay [4] (Homo sapiens, ASPC1, 72 h), 0.422 µM.

On to `Cc1cc2[nH]ncc2c2c1CCCCC(=O)O[C@]1(CF)CCCN(C1)c1nc(OC[C@@]34CCCN3C[C@H](F)C4)nc3c(F)c-2ncc13` [Example 33, (17R)-30-fluoro-17-(fluoromethyl)-24-(((2R,7aS)-2-fluorotetrahydro-1H-pyrrolo[1,2-a]pyrrol-7a(5H)-yl)methoxy)-9-methyl-16-oxa-5,6,21,23,25,29-hexaazahexacyclo[24.3.1.1~17,21~.0~2,10~.0~3,7~.0~22,27~]hentriaconta-1(30),2,4,7,9,22,24,26,28-nonaen-15-one], for which the IC50 in assay [1] was 0.004 µM; in assay [2] (Homo sapiens, ASPC1, 2 h) it was 0.077 µM; in assay [3], 0.006 µM; in assay [4] (Homo sapiens, ASPC1, 72 h) it was 0.809 µM.

On to `O=C1CCCCc2c(Cl)cc3[nH]ncc3c2-c2ncc3c(nc(OC[C@@]45CCCN4C[C@H](F)C5)nc3c2F)N2CCC[C@H](C2)O1` [Example 36, (17R)-9-Chloro-30-fluoro-24-(((2R,7aS)-2-fluorotetrahydro-1H-pyrrolo[1,2-a]pyrrol-7a(5H)-yl)methoxy)-16-oxa-5,6,21,23,25,29-hexaazahexacyclo[24.3.1.1˜17,21˜.0˜2,10˜.0˜3,7˜.0˜22,27˜]hentriaconta-1(30),2,4,7,9,22,24,26,28-nonaen-15-one bis(2,2,2-trifluoroacetate)], for which the IC50 stood at 0.001 µM in assay [1]; 0.008 µM in assay [2] (Homo sapiens, ASPC1, 2 h); 0.003 µM in assay [3]; 0.111 µM in assay [4] (Homo sapiens, ASPC1, 72 h).

As to `Cc1cc2[nH]ncc2c2c1CCCOC(=O)CC1CCCN(C1)c1nc(OC[C@@]34CCCN3C[C@H](F)C4)nc3c(F)c-2ncc13` (some centres unmarked) [Example 39], the IC50 in assay [1] amounted to 0.008 µM; in assay [2] (2 h), 0.016 µM; in assay [3], 0.012 µM; in assay [4], 0.191 µM.

In the case of `Cc1cc2[nH]ncc2c2c1CCCOC(=O)C[C@@H]1CCCN(C1)c1nc(OC[C@@]34CCCN3C[C@H](F)C4)nc3c(F)c-2ncc13` [Example 40], the IC50 stood at 0.003 µM in assay [1]; 0.008 µM in assay [2] (Homo sapiens, ASPC1, 2 h); 0.005 µM in assay [3]; 0.09 µM in assay [4] (Homo sapiens, ASPC1, 72 h).

Consider `O=C1CCCc2c(F)ccc3cc(O)cc(c23)-c2ncc3c(nc(OC[C@@]45CCCN4C[C@H](F)C5)nc3c2F)N2CCC[C@H](C2)O1` [Example 41, (15R)-22,31-Difluoro-8-(((2R,7aS)-2-fluorotetrahydro-1H-pyrrolo[1,2-a]pyrrol-7a(5H)-yl)methoxy)-27-hydroxy-16-oxa-3,7,9,11-tetraazahexacyclo[19.7.1.1˜2,6˜.1˜11,15˜.0˜5,10˜.0˜25,29˜]hentriaconta-1(28),2(31),3,5,7,9,21,23,25(29),26-decaen-17-one 2,2,2-trifluoroacetate salt], for which the IC50 is 0.002 µM in assay [1]; 0.003 µM in assay [2] (Homo sapiens, ASPC1, 2 h); 0.003 µM in assay [3]; 0.047 µM in assay [4] (Homo sapiens, ASPC1, 72 h).

Turning to `O=C1CCCc2c(F)ccc3cc(O)cc(c23)-c2ncc3c(nc(OC[C@@]45CCCN4C[C@H](F)C5)nc3c2F)N2CCC[C@](CF)(C2)O1` [Example 42], the IC50 amounted to 0.002 µM in assay [1]; 0.038 µM in assay [2] (Homo sapiens, ASPC1, 2 h); 0.004 µM in assay [3]; 0.414 µM in assay [4] (Homo sapiens, ASPC1, 72 h).

Regarding `Cc1cc2[nH]ncc2c2c1CCCCC(=O)N[C@@H]1CCCCN(C1)c1nc(OC[C@@]34CCCN3C[C@H](F)C4)nc3c(F)c-2ncc13` [Example 54, (26R)-32-fluoro-4-(((2R,7aS)-2-fluorotetrahydro-1H-pyrrolo[1,2-a]pyrrol-7a(5H)-yl)methoxy)-18-methyl-1,3,5,9,14,15,25-heptaazahexacyclo[24.4.1.1~6,10~.0~2,7~.0~11,19~.0~12,16~]dotriaconta-2,4,6,8,10(32),11,13,16,18-nonaen-24-one], the IC50 came to 0.003 µM in assay [1]; 0.135 µM in assay [2] (Homo sapiens, ASPC1, 2 h); 0.006 µM in assay [3]; 1.64 µM in assay [4] (Homo sapiens, ASPC1, 72 h).

Turning to `C[C@@]12CCCN(C1)c1nc(OC[C@@]34CCCN3C[C@H](F)C4)nc3c(F)c(ncc13)-c1cccc3ccc(F)c(c13)CCOC(=O)N2` [Example 77, (15R)-22,31-difluoro-8-(((2R,7aS)-2-fluorotetrahydro-1H-pyrrolo[1,2-a]pyrrol-7a(5H)-yl)methoxy)-15-methyl-18-oxa-3,7,9,11,16-pentaazahexacyclo[19.7.1.1~2,6~.1~11,15~.0~5,10~.0~25,29~]hentriaconta-1(29),2(31),3,5,7,9,21,23,25,27-decaen-17-one], the IC50 in assay [1] is 0.007 µM; in assay [2] (Homo sapiens, ASPC1, 2 h) it was 0.745 µM; in assay [3], 0.014 µM; in assay [4] (Homo sapiens, ASPC1, 72 h), 2.14 µM.

`O=C1C[C@H]2CN(CCO2)c2nc(OC[C@@]34CCCN3C[C@H](F)C4)nc3c(F)c(ncc23)-c2c(c(Cl)cc3[nH]ncc23)CCCO1` [Example 79, (17S)-9-chloro-30-fluoro-24-(((2R,7aS)-2-fluorotetrahydro-1H-pyrrolo[1,2-a]pyrrol-7a(5H)-yl)methoxy)-14,18-dioxa-5,6,21,23,25,29-hexaazahexacyclo[24.3.1.1~17,21~.0~2,10~.0~3,7~.0~22,27~]hentriaconta-1(30),2,4,7,9,22,24,26,28-nonaen-15-one]: the IC50 was determined as 0.003 µM in assay [1]; 0.004 µM in assay [2] (Homo sapiens, ASPC1, 2 h); 0.004 µM in assay [3]; 0.06 µM in assay [4] (Homo sapiens, ASPC1, 72 h).
